Target: T1, NOV2 (Novosphingobium aromaticivorans, UniProt Q2G4H8)
T1 sequence (Q2G4H8 1-497): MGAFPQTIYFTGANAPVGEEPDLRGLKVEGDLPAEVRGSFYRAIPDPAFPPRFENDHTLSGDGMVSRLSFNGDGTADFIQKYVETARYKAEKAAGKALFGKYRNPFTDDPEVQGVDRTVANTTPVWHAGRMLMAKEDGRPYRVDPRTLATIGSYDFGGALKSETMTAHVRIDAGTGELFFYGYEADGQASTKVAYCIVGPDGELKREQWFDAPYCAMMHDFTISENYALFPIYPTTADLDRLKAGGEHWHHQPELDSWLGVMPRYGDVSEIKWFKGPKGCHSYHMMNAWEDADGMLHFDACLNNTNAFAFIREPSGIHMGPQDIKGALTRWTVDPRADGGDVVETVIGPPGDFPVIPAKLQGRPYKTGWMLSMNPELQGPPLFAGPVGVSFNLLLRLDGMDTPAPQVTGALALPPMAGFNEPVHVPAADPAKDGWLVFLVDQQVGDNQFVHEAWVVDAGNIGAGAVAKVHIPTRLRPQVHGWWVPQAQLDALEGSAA
Assay: EPR of Fe-NO adduct and […] Mössbauer
Format: binding
Details: anaerobic, NO present for EPR

For Oc1ccc(/C=C/c2cc(O)cc(O)c2)cc1 [resveratrol], the “EPR of Fe-NO adduct and 57Fe Mössbauer” value (4 equiv substrate, pH 8.5) was “The resveratrol ES+NO of NOV2 showed EPR spectra (Figure 5D) similar to those with piceatannol”.
In the case of Oc1cc(O)cc(/C=C/c2ccc(O)c(O)c2)c1 [piceatannol], the “EPR of Fe-NO adduct and 57Fe Mössbauer” value (4-10 equiv substrate, pH 8.5 or 7.5) is reported as “nearly all active sites had substrate bound”.
